# Molecular target: T1, full length active recombinant SYK enzyme (Homo sapiens, UniProt P43405)
# T1 construct: full length active recombinant SYK enzyme (Millipore, Calif.); purchased Millipore
# Assay: Inhibition of Syk tyrosine phosphorylation activity (LANCE TR-FRET kinase assay)
# Format: biochemical
# Conditions: 1 nM active SYK enzyme, 550 nM SYK-substrate, 100 μM ATP, 1 hour at room temperature
row,SMILES,IC50 [nM]
1,"NC(=O)c1nnc(N[C@@H]2CCCC[C@@H]2N)nc1Nc1ccc(N2CCOCC2=O)c(F)c1 [Example 33, 3-(((1R,2S)-2-aminocyclohexyl)amino)-5-((3-fluoro-4-(3-oxomorpholino)phenyl)amino)-1,2,4-triazine-6-carboxamide]",100 to 1000
2,"Cn1cc(Nc2nc(N[C@@H]3CCOC[C@@H]3N)nnc2C(N)=O)cn1 [Example 79, 3-(((3R,4R)-3-aminotetrahydro-2H-pyran-4-yl)amino)-5-((1-methyl-1H-pyrazol-4-yl)amino)-1,2,4-triazine-6-carboxamide]",100 to 1000
3,"NC(=O)c1nnc(N[C@@H]2CCCC[C@@H]2N)nc1Nc1nc(-c2ccccc2)no1 [Example 138, 3-(((1R,2S)-2-aminocyclohexyl)amino)-5-((3-phenyl-1,2,4-oxadiazol-5-yl)amino)-1,2,4-triazine-6-carboxamide]",> 1000
4,"NC(=O)c1nnc(N[C@H]2CC[C@@H](N)CC2)nc1Nc1ccc2ncccc2c1 [Example 56, 3-(((1S,4S)-4-aminocyclohexyl)amino)-5-(quinolin-6-ylamino)-1,2,4-triazine-6-carboxamide]",10 to 100
5,"NC(=O)c1nnc(N[C@@H]2CCCC[C@@H]2N)nc1Nc1cnc2cc(F)ccc2c1 [Example 158, 3-(((1R,2S)-2-aminocyclohexyl)amino)-5-((7-fluoroquinolin-3-yl)amino)-1,2,4-triazine-6-carboxamide]",1 to 10
6,"NC(=O)c1nnc(N[C@@H]2CCCC[C@@H]2N)nc1Nc1cnc2c(F)cccc2c1 [Example 160, 3-(((1R,2S)-2-aminocyclohexyl)amino)-5-((8-fluoroquinolin-3-yl)amino)-1,2,4-triazine-6-carboxamide]",1 to 10
7,"NC(=O)c1nnc(N[C@@H]2CCOC[C@@H]2N)nc1Nc1cccc(-c2ncco2)c1 [Example 252, 3-(((3R,4R)-3-aminotetrahydro-2H-pyran-4-yl)amino)-5-((3-(oxazol-2-yl)phenyl)amino)-1,2,4-triazine-6-carboxamide]",1 to 10
8,"NC(=O)c1nnc(N[C@@H]2CCCC[C@@H]2N)nc1Nc1cnc2ccc(F)cc2c1 [Example 122, 3-(((1R,2S)-2-aminocyclohexyl)amino)-5-((6-fluoroquinolin-3-yl)amino)-1,2,4-triazine-6-carboxamide]",10 to 100
9,"NC(=O)c1nnc(N[C@@H]2CCCC[C@@H]2N)nc1Nc1cnn2ccccc12 [Example 35, 3-(((1R,2S)-2-aminocyclohexyl)amino)-5-(pyrazolo[1,5-a]pyridin-3-ylamino)-1,2,4-triazine-6-carboxamide]",1 to 10
10,"Cn1ccc2cc(Nc3nc(N[C@H]4CN[C@@H](CO)C4)nnc3C(N)=O)cnc21 [Example 153, 3-(((3R,5R)-5-(hydroxymethyl)pyrrolidin-3-yl)amino)-5-((1-methyl-1H-pyrrolo[2,3-b]pyridin-5-yl)amino)-1,2,4-triazine-6-carboxamide]",10 to 100
11,"NC(=O)c1nnc(N[C@@H]2CCNC2)nc1Nc1cccc(-c2ncccn2)c1 [Example 70, (R)-5-((3-(pyrimidin-2-yl)phenyl)amino)-3-(pyrrolidin-3-ylamino)-1,2,4-triazine-6-carboxamide]",10 to 100
12,"NC(=O)c1nnc(N[C@@H]2CCCC(F)(F)[C@@H]2N)nc1Nc1ccc(-c2ncco2)cc1 [Example 132, 3-(((1R,2R)-2-amino-3,3-difluorocyclohexyl)amino)-5-((4-(oxazol-2-yl)phenyl)amino)-1,2,4-triazine-6-carboxamide]",10 to 100
13,"NC(=O)c1nnc(N[C@@H]2CCCC[C@@H]2N)nc1Nc1cccc2ncsc12 [Example 40, 3-(((1R,2S)-2-aminocyclohexyl)amino)-5-(benzo[d]thiazol-7-ylamino)-1,2,4-triazine-6-carboxamide]",10 to 100

# Results, then the compound that gave them:
row,IC50 [nM],SMILES
1,1 to 10,"NC(=O)c1nnc(N[C@@H]2CCOC[C@@H]2N)nc1Nc1ccc2c(c1)CCC2 [Example 223, 3-(((3R,4R)-3-aminotetrahydro-2H-pyran-4-yl)amino)-5-((2,3-dihydro-1H-inden-5-yl)amino)-1,2,4-triazine-6-carboxamide]"
2,10 to 100,"Cc1ccc(Nc2nc(N[C@H](CC(C)C)C(N)=O)nnc2C(N)=O)cc1 [Example 121, (R)-3-((1-amino-4-methyl-1-oxopentan-2-yl)amino)-5-(p-tolylamino)-1,2,4-triazine-6-carboxamide]"
3,1 to 10,"Cn1cc(C#N)c2ccc(Nc3nc(N[C@@H]4CCOC[C@@H]4N)nnc3C(N)=O)cc21 [Example 172, 3-(((3R,4R)-3-aminotetrahydro-2H-pyran-4-yl)amino)-5-((3-cyano-1-methyl-1H-indol-6-yl)amino)-1,2,4-triazine-6-carboxamide]"
4,1 to 10,"NC(=O)c1nnc(N[C@@H]2CCCC(F)(F)[C@@H]2N)nc1Nc1ccc2c(c1)COCC2 [Example 228, 3-(((1R,2R)-2-amino-3,3-difluorocyclohexyl)amino)-5-(isochroman-7-ylamino)-1,2,4-triazine-6-carboxamide]"
5,10 to 100,"COc1ccc(Nc2nc(N[C@H](CC(C)C)C(N)=O)nnc2C(N)=O)cc1C(F)(F)F [Example 113, (R)-3-((1-amino-4-methyl-1-oxopentan-2-yl)amino)-5-((4-methoxy-3-(trifluoromethyl)phenyl)amino)-1,2,4-triazine-6-carboxamide]"
6,10 to 100,"CC[C@@H](Nc1nnc(C(N)=O)c(Nc2cccc(Cl)c2)n1)C(N)=O [Example 194, (R)-3-((1-amino-1-oxobutan-2-yl)amino)-5-((3-chlorophenyl)amino)-1,2,4-triazine-6-carboxamide]"
7,1 to 10,"CC[C@@H](Nc1nnc(C(N)=O)c(Nc2ccc3cc[nH]c3c2)n1)C(N)=O [Example 102, (R)-5-((1H-indol-6-yl)amino)-3-((1-amino-1-oxobutan-2-yl)amino)-1,2,4-triazine-6-carboxamide]"
8,10 to 100,"NC(=O)c1nnc(N[C@@H]2CCCC(F)(F)[C@@H]2N)nc1Nc1ccc2c(c1)CCCC2 [Example 237, 3-(((1R,2R)-2-amino-3,3-difluorocyclohexyl)amino)-5-((5,6,7,8-tetrahydronaphthalen-2-yl)amino)-1,2,4-triazine-6-carboxamide]"
9,1 to 10,"NC(=O)c1nnc(N[C@@H]2CCCC[C@@H]2N)nc1Nc1cc(F)cc(F)c1 [Example 20, 3-(((1R,2S)-2-aminocyclohexyl)amino)-5-((3,5-difluorophenyl)amino)-1,2,4-triazine-6-carboxamide]"
10,100 to 1000,"NC(=O)c1nnc(N[C@@H]2CCCC(F)(F)[C@@H]2N)nc1Nc1ccc2c(c1)CS(=O)(=O)C2 [Example 217, 3-(((1R,2R)-2-amino-3,3-difluorocyclohexyl)amino)-5-((2,2-dioxido-1,3-dihydrobenzo[c]thiophen-5-yl)amino)-1,2,4-triazine-6-carboxamide]"
11,10 to 100,"Cc1ccc(Nc2nc(N[C@@H]3CCCC(F)(F)[C@@H]3N)nnc2C(N)=O)cc1 [Example 167, 3-(((1R,2R)-2-amino-3,3-difluorocyclohexyl)amino)-5-(p-tolylamino)-1,2,4-triazine-6-carboxamide]"
12,10 to 100,"CC[C@@H](Nc1nnc(C(N)=O)c(Nc2ccc3scnc3c2)n1)C(N)=O [Example 246, (R)-3-((1-amino-1-oxobutan-2-yl)amino)-5-(benzo[d]thiazol-5-ylamino)-1,2,4-triazine-6-carboxamide]"
13,> 1000,"NC(=O)c1nnc(N[C@@H]2CCCC(F)(F)[C@@H]2N)nc1Nc1cccc(C(F)(F)F)c1 [Example 238, 3-(((1R,2R)-2-amino-3,3-difluorocyclohexyl)amino)-5-((3-(trifluoromethyl)phenyl)amino)-1,2,4-triazine-6-carboxamide]"
14,10 to 100,"NC(=O)c1nnc(N[C@@H]2CCCC(F)(F)[C@@H]2N)nc1Nc1ccc2c(c1)CCOC2 [Example 214, 3-(((1R,2R)-2-amino-3,3-difluorocyclohexyl)amino)-5-(isochroman-6-ylamino)-1,2,4-triazine-6-carboxamide]"
15,100 to 1000,"CC(C)C[C@@H](Nc1nnc(C(N)=O)c(Nc2cncc(F)c2)n1)C(N)=O [Example 16, (R)-3-((1-amino-4-methyl-1-oxopentan-2-yl)amino)-5-((5-fluoropyridin-3-yl)amino)-1,2,4-triazine-6-carboxamide]"
16,10 to 100,"Cc1ccc(Nc2nc(N[C@H](CC3CC3)C(N)=O)nnc2C(N)=O)cc1 [Example 226, (R)-3-((1-amino-3-cyclopropyl-1-oxopropan-2-yl)amino)-5-(p-tolylamino)-1,2,4-triazine-6-carboxamide]"

# Reference: patent US9040530B2, “1,2,4-triazine-6-carboxamide kinase inhibitors” (Portola Pharmaceuticals, Inc., priority 2012, dated 2015)
